Results from patent US10080741B2, “Isoxazole derivatives as FXR agonists and methods of use thereof” (Enanta Pharmaceuticals, Inc., priority 2016, dated 2018).

Molecular target: T1, human FXR (NR1H4) (Homo sapiens, UniProt Q96RI1)
T1 construct: host or cells: CHO (Chinese hamster ovary) reporter cells
T1 sequence (Q96RI1 1-486): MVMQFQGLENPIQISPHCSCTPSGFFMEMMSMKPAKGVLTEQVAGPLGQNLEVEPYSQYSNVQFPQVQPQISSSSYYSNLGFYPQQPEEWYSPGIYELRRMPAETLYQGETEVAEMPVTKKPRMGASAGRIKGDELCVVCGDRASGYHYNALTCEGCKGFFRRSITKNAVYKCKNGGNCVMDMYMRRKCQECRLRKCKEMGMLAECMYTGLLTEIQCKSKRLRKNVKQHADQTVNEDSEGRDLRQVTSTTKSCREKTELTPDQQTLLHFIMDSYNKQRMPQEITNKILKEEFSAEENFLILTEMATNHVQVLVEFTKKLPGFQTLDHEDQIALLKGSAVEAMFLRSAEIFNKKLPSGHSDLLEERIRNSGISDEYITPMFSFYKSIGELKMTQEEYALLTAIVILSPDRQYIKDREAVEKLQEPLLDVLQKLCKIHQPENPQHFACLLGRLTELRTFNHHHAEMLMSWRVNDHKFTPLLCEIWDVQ
Assay: Human FXR (NR1H4) Assay, luciferase reporter in CHO cells (Indigo Bioscience kit IB00601)
Type: cell-based
Conditions: for EC50: CHO cells expressing human NR1H4, 22 hours incubation, potency ranges; for Efficacy (%): efficacy normalized to CDCA set as 100%
Source text: Human FXR (NR1H4) Assay Determination of a ligand mediated Gal4 promoter driven transactivation to quantify ligand binding mediated activation of FXR. FXR Reporter Assay kit purchased from Indigo Bioscience (Catalogue number: IB00601) to determine the potency and efficacy of compound developed by Enanta that can induce FXR activation. The principle application of this reporter assay system is to quantify functional activity of human FXR. The assay utilizes non-human mammalian cells, CHO (Chinese hamster ovary) cells engineered to express human NR1H4 protein (referred to as FXR). Reporter cells also incorporate the cDNA encoding beetle luciferase which catalyzes the substrates and yields photon emission. Luminescence intensity of the reaction is quantified using a plate-reading luminometer, Envision. Reporter Cells include the luciferase reporter gene functionally linked to an FXR responsive promoter. Thus, quantifying changes in luciferase expression in the treated reporter cells provides a sensitive surrogate measure of the changes in FXR activity. […] The assay is according to the manufacturer's instructions. […] Retrieve Reporter Cells from −80° C. storage. Perform a rapid thaw of the frozen cells by transferring a 10 ml volume of 37° C. cell recovery medium into the tube of frozen cells. Recap the tube of Reporter Cells and immediately place it in a 37° C. water bath for 5-10 minutes. Retrieve the tube of Reporter Cell Suspension from the water bath. Sanitize the outside surface of the tube with a 70% alcohol swab, and then transfer it into the cell culture hood. Dispense 90 μl of cell suspension into each well of the 96-well Assay Plate. Transfer the plate into 37° C. incubator, allowing the cells adherent to the bottom of the well. Dilute compounds in Dilution Plate (DP), and administrate to cells at Assay Plate (AP). DMSO content of the samples was kept at 0.2%. Cells were incubated for additional 22 hours before luciferase activities were measured. Thirty minutes before intending to quantify FXR activity, remove Detection Substrate and Detection Buffer from the refrigerator and place them in a low-light area so that they may equilibrate to room temperature. Remove the plate's lid and discard all media contents by ejecting it into an appropriate waste container. Gently tap the inverted plate onto a clean absorbent paper towel to remove residual droplets. Cells will remain tightly adhered to well bottoms. Add 100 μl of luciferase detection reagent to each well of the assay plate. Allow the assay plate to rest at room temperature for at least 5 minutes following the addition of LDR. Set the instrument (Envision) to perform a single 5 second “plate shake” prior to reading the first assay well. Read time may be 0.5 second (500 mSec) per well.

EC50 [nM]	Efficacy (%)	SMILES
100 to 1000	220	CC(C)c1onc(-c2c(Cl)cccc2Cl)c1COc1ccc2cc(-c3cccc(C(=O)O)c3)sc2c1 [Compound (1), reference compound]
100 to 1000	190	CC(C)c1onc(-c2c(Cl)cccc2Cl)c1COc1ccc2cc(-c3cccc(C(=O)NS(=O)(=O)C4CC4)c3)sc2c1 [Example 303]
1000 to 10000	132	CC(C)c1onc(-c2c(Cl)cccc2Cl)c1COc1ccc2cc(-c3cccc(C(=O)NS(=O)(=O)c4ccc(C(C)(C)C)cc4)c3)sc2c1 [Example 312]
100 to 1000	116	CC(C)c1onc(-c2c(Cl)cccc2Cl)c1COc1ccc2cc(-c3cccc(C(=O)NS(=O)(=O)N(C)C)c3)sc2c1 [Example 318]
